Laboratory results: US9133245B2, “Cyclic lactadherin peptide mimetics and their uses” (TRUSTEES OF BOSTON COLLEGE, priority 2011, dated 2015)
Entries after “also recorded” stand apart in the source; their conditions may differ. Non-standard residues stand in square brackets, D forms with d. No end group written: not given here. Bip = N[C@@H](Cc1ccc(-c2ccccc2)cc1)C(=O)O

B1: FITC-labeled annexin V: naturally occurring 36 kDa PS-binding protein, FITC-labeled (protein, UniProt P08758 2-320, looked up)
Annexin A5: AQVLRGTVTDFPGFDERADAETLRKAMKGLGTDEESILTLLTSRSNAQRQEISAAFKTLFGRDLLDDLKSELTGKFEKLIVALMKPSRLYDAYELKHALKGAGTNEKVLTEIIASRTPEELRAIKQVYEEEYGSSLEDDVVGDTSGYYQRMLVVLLQANRDPDAGIDEAQVEQDAQALFQAGELKWGTDEEKFITIFGTRSVSHLRKVFDKYMTISGFQIEETIDRETSGNLEQLLLAVVKSIRSIPAYLAETLYYAMKGAGTDDHTLIRVMVSRSEIDLFNIRKEFRKNFATSLYSMIKGDTSGDYKKALLLLCGEDD
modifications: FITC label
B2: Lactadherin: 47 kDa glycoprotein, natural PS-binding protein (protein, UniProt Q08431 24-387, looked up)
Lactadherin: LDICSKNPCHNGGLCEEISQEVRGDVFPSYTCTCLKGYAGNHCETKCVEPLGLENGNIANSQIAASSVRVTFLGLQHWVPELARLNRAGMVNAWTPSSNDDNPWIQVNLLRRMWVTGVVTQGASRLASHEYLKAFKVAYSLNGHEFDFIHDVNKKHKEFVGNWNKNAVHVNLFETPVEAQYVRLYPTSCHTACTLRFELLGCELNGCANPLGLKNNSIPDKQITASSSYKTWGLHLFSWNPSYARLDKQGNFNAWVAGSYGNDQWLQVDLGSSKEVTGIITQGARNFGSVQFVASYKVAYSNDSANWTEYQDPRTGSSKIFPGNWDNHSHKKNLFETPILARYVRILPVAWHNRIALRLELLGC

What was measured:
[1] = tested on: phosphatidylserine (PS)-containing liposomes (PC/PS vesicles); test: Liposome binding assay (Trp-to-dansyl FRET) with large unilamellar vesicles; set-up: key to Liposome binding assay: “Y” means PS-selective (or apoptotic cell-specific) binding is observed; N means no or insignificant membrane binding is observed; “Nonselective” refers to membrane binding independent on PS; conditions: for Liposome binding assay: dansyl FRET assay; for binding to lipid vesicles of either composition: vesicles with and without PS; for binding to PC/PS liposomes (sensitized dansyl emission at 520 nm): PC/PS vesicles; for PS-selective binding in the presence of cholesterol: cholesterol-containing liposomes with PS vs without PS
Procedure: The binding of cLac to lipid membrane can be analyzed by any method known it the art. For example, by the fluorescence assay (Trp-to-dansyl FRET) described herein. Basically, large unilamellar vesicles (100 nm in diameter) were prepared with phosphatidylcholine (PC) and varied percentages of PS. All vesicles contained 5% dansyl-labeled PE to serve as a reporting group. The peptide-vesicle binding was monitored by the fluorescence resonance energy transfer (FRET) from Trp to the dansyl group. Emission of sensitized dansyl is monitored at 520 nm and Trp emission is monitored near 350 nm. Membrane binding of cLac to the PC/PS vesicles produces a sensitized dansyl emission at 520 nm with a concurrent decrease of Trp emission near 350 nm.
The peptide-membrane binding was evaluated via a fluorescence assay: large unilamellar vesicles (100 nm in diameter) were prepared with PC and varied percentages of PS. All vesicles contained 5% dansyl-labeled PE to serve as a reporting group. The peptide-vesicle binding was monitored by the fluorescence resonance energy transfer (FRET) from Trp to the dansyl group.

[2] = tested on: apoptotic HeLa and Jukat cells (STS or CPT treated); test: Cell imaging of apoptotic cells by epifluorescence microscopy; format: cell-based, human; set-up: key to Cell imaging: “Y” means PS-selective (or apoptotic cell-specific) binding is observed; N means no or insignificant membrane binding is observed; “Nonselective” refers to membrane binding independent on PS; conditions: for Cell imaging: standard epifluorescence microscopy
Procedure: The fluorescent derivative was tested for its potential to stain apoptotic cells. Cultured HeLa and Jukat cells were treated with the potent apoptogen staurosporine (STS) or camptothecin (CPT) respectively to trigger apoptosis. The experimental conditions were optimized with the FITC-labeled annexin V and the membrane impermeable DNA intercalator propidium iodine (PI). The treatment with 0.1 μM STS or CPT for 4 hours gave a large population of early apoptotic cells (data not shown), which were stained with annexin, but not PI. This indicates increased presence of PS exposure on the outer membrane leaflet of the cells experiencing early apoptosis. […] As negative controls, both fluorescein alone as well as the FITC-labeled linear precursor of cLac were used to label the apoptotic cells and tested for fluorescence staining. […] This observation is consistent with the previous reports that annexin V preferentially binds to cells at the early stages of apoptosis. Since these early apoptotic cells hold their membrane integrity (PI negative), it is believed cLac2-Fl stained the cells by binding to their outer surfaces, presumably to PS.

PS = conditions: without cofactors; cited from earlier work

Row | Molecule | Liposome binding assay [1] | also measured
1 | D-WBipGHIQGGRGGGD (cyclo([dW][Bip]GHIQGGRGGGD); SMILES CC[C@H](C)[C@@H]1NC(=O)[C@H](Cc2c[nH]cn2)NC(=O)CNC(=O)[C@H](Cc2ccc(-c3ccccc3)cc2)NC(=O)[C@@H](Cc2c[nH]c3ccccc23)NC(=O)[C@H](CC(=O)O)NC(=O)CNC(=O)CNC(=O)CNC(=O)[C@H](CCCNC(=N)N)NC(=O)CNC(=O)CNC(=O)[C@H](CCC(N)=O)NC1=O) [cLac-D-Trp] | Y | 
2 | DWBipGHIQGGRGGG (DW[Bip]GHIQGGRGGG; not fully specified) [cLac-linear, ID; NO; 43] | N | Cell imaging [2]: N; binding to lipid vesicles of either composition ([1]; FRET): binds to neither type of vesicle
3 | Lac-1: cLac variant peptide, SEQ. ID. NO. 35 (WGHIQGRGGGD) | N | 
4 | Lac-1R: cLac variant peptide, SEQ. ID. NO. 36 (GGGRGQIHGWD) | N | 
5 | Lac-2: cLac variant peptide, SEQ. ID. NO. 37 (WGHIQGGRGGGD) | N | 
6 | Lac-Tph: cLac variant peptide, SEQ. ID. NO. 39 (WFGHIQGGRGGGD) | Nonselective | 
7 | WBipGHIQAGRGGGD (cyclo(W[Bip]GHIQAGRGGGD); SMILES CC[C@H](C)[C@@H]1NC(=O)[C@H](Cc2c[nH]cn2)NC(=O)CNC(=O)[C@H](Cc2ccc(-c3ccccc3)cc2)NC(=O)[C@H](Cc2c[nH]c3ccccc23)NC(=O)[C@H](CC(=O)O)NC(=O)CNC(=O)CNC(=O)CNC(=O)[C@H](CCCNC(=N)N)NC(=O)CNC(=O)[C@H](C)NC(=O)[C@H](CCC(N)=O)NC1=O) [cLac-A1] | Y | 
8 | WBipGHIQGARGGGD (cyclo(W[Bip]GHIQGARGGGD); SMILES CC[C@H](C)[C@@H]1NC(=O)[C@H](Cc2c[nH]cn2)NC(=O)CNC(=O)[C@H](Cc2ccc(-c3ccccc3)cc2)NC(=O)[C@H](Cc2c[nH]c3ccccc23)NC(=O)[C@H](CC(=O)O)NC(=O)CNC(=O)CNC(=O)CNC(=O)[C@H](CCCNC(=N)N)NC(=O)[C@H](C)NC(=O)CNC(=O)[C@H](CCC(N)=O)NC1=O) [cLac-A2] | Y | 
9 | WBipGHIQGGGRGGGD (cyclo(W[Bip]GHIQGGGRGGGD); SMILES CC[C@H](C)[C@@H]1NC(=O)[C@H](Cc2c[nH]cn2)NC(=O)CNC(=O)[C@H](Cc2ccc(-c3ccccc3)cc2)NC(=O)[C@H](Cc2c[nH]c3ccccc23)NC(=O)[C@H](CC(=O)O)NC(=O)CNC(=O)CNC(=O)CNC(=O)[C@H](CCCNC(=N)N)NC(=O)CNC(=O)CNC(=O)CNC(=O)[C@H](CCC(N)=O)NC1=O) [cLac-33G] | Y | 
10 | WBipGHIQGGRGGAD (cyclo(W[Bip]GHIQGGRGGAD); SMILES CC[C@H](C)[C@@H]1NC(=O)[C@H](Cc2c[nH]cn2)NC(=O)CNC(=O)[C@H](Cc2ccc(-c3ccccc3)cc2)NC(=O)[C@H](Cc2c[nH]c3ccccc23)NC(=O)[C@H](CC(=O)O)NC(=O)[C@H](C)NC(=O)CNC(=O)CNC(=O)[C@H](CCCNC(=N)N)NC(=O)CNC(=O)CNC(=O)[C@H](CCC(N)=O)NC1=O) [cLac-A5] | Y | 
11 | WBipGHIQGGRGGGD (cyclo(W[Bip]GHIQGGRGGGD); SMILES CC[C@H](C)[C@@H]1NC(=O)[C@H](Cc2c[nH]cn2)NC(=O)CNC(=O)[C@H](Cc2ccc(-c3ccccc3)cc2)NC(=O)[C@H](Cc2c[nH]c3ccccc23)NC(=O)[C@H](CC(=O)O)NC(=O)CNC(=O)CNC(=O)CNC(=O)[C@H](CCCNC(=N)N)NC(=O)CNC(=O)CNC(=O)[C@H](CCC(N)=O)NC1=O) [cLac-2, biphenylalanine replaces Phe] | Y | binding to PC-alone liposomes ([1]; FRET, PC-alone liposomes): no binding; binding to PC/PS liposomes (sensitized dansyl emission at 520 nm) ([1]; FRET): clearly elicits a sensitized dansyl emission; also recorded: only with PC/PS liposomes; binding to cholesterol-containing membranes without PS ([1]; cholesterol-containing PC liposomes): non-specific binding; PS-selective binding in the presence of cholesterol [1]: able to differentiate PS-containing vesicles from PS-absent vesicles; dansyl fluorescence of vesicles containing 20% PS relative to 5% PS ([1]; peptide at saturating concentration 50 μM): close to four-fold; Kd ([1]; titration with PC/PS vesicles, sensitized dansyl emission, read-out: apparent dissociation constant (Kd)): ~15 µM
12 | WBipGHIQGGRGGGGD (cyclo(W[Bip]GHIQGGRGGGGD); SMILES CC[C@H](C)[C@@H]1NC(=O)[C@H](Cc2c[nH]cn2)NC(=O)CNC(=O)[C@H](Cc2ccc(-c3ccccc3)cc2)NC(=O)[C@H](Cc2c[nH]c3ccccc23)NC(=O)[C@H](CC(=O)O)NC(=O)CNC(=O)CNC(=O)CNC(=O)CNC(=O)[C@H](CCCNC(=N)N)NC(=O)CNC(=O)CNC(=O)[C@H](CCC(N)=O)NC1=O) [cLac-24G] | Y | 
13 | WBipGHIQGGRGGGGGD (cyclo(W[Bip]GHIQGGRGGGGGD); SMILES CC[C@H](C)[C@@H]1NC(=O)[C@H](Cc2c[nH]cn2)NC(=O)CNC(=O)[C@H](Cc2ccc(-c3ccccc3)cc2)NC(=O)[C@H](Cc2c[nH]c3ccccc23)NC(=O)[C@H](CC(=O)O)NC(=O)CNC(=O)CNC(=O)CNC(=O)CNC(=O)CNC(=O)[C@H](CCCNC(=N)N)NC(=O)CNC(=O)CNC(=O)[C@H](CCC(N)=O)NC1=O) [cLac-25G] | Y | 
14 | WBipGHIQGRGGGD (cyclo(W[Bip]GHIQGRGGGD); SMILES CC[C@H](C)[C@@H]1NC(=O)[C@H](Cc2c[nH]cn2)NC(=O)CNC(=O)[C@H](Cc2ccc(-c3ccccc3)cc2)NC(=O)[C@H](Cc2c[nH]c3ccccc23)NC(=O)[C@H](CC(=O)O)NC(=O)CNC(=O)CNC(=O)CNC(=O)[C@H](CCCNC(=N)N)NC(=O)CNC(=O)[C@H](CCC(N)=O)NC1=O) [cLac-13G] | Y | 
15 | WBipGHIQGppGRGGAD [cLac-PPG-2] | Y | Cell imaging [2]: Y; binding to PC/PS liposomes (sensitized dansyl emission at 520 nm) ([1]; FRET): selective binding; PS-selective binding in the presence of cholesterol [1]: selective binding
16 | WBipGHppGQGGRGGGD [cLac-PPG-0] | Y | Cell imaging [2]: Y; binding to PC/PS liposomes (sensitized dansyl emission at 520 nm) ([1]; FRET): selective binding; PS-selective binding in the presence of cholesterol [1]: selective binding
17 | cLac-1: first cyclic lactadherin mimetic with Trp and Phe as membrane insertion motif, SEQ. ID. NO. 38 (WFGHIQGGRGGGD; cyclic) | N | binding to lipid vesicles of either composition ([1]; FRET): no binding
18 | cLac-22G: cLac variant with di-Gly in linker II, SEQ. ID. NO. 42 (WFGHIQGGRGGD; cyclic) | N | dansyl emission / membrane binding compared among linker-length variants ([1]; Trp-to-dansyl FRET, Gly number of linker II varied 2 to 5, or linker I varied): lowest
19 | cLac-A3: alanine for glycine linker variant G10A, SEQ. ID. NO. 40 (WFGHIQGGRAGGD; cyclic) | N | 
20 | cLac-A4: alanine for glycine linker variant G11A, SEQ. ID. NO. 41 (WFGHIQGGRGAGD; cyclic) | N | 
21 | B1 |  | staining of apoptotic cells ([2]; 0.1 μM STS or CPT for 4 hours, early apoptotic cells): stained
22 | B2 |  | affinity of binding to PS (PS): nanomolar
